“And” between values parts separate entries of the source, which are not always exact repeats. Equal values may be shown once. Blank lines part the entries; values can stand above or below the molecule they belong to.
Assays:
[1] = test system: RIF cells; assay: preliminary screening of aromatic alkyl ethers for in vitro and in vivo efficacy (RIF cells); assay type: cell-based
Source text: There are several methods for labeling the compounds with iodine isotopes. Conversion of the cold iodo- to radioactive iodo- is possible, but the specific activity of the resulting product is low. […] Therefore, we prepared a series of aromatic alkyl ethers and evaluated them for in vitro (RIF cells) and in vivo efficacy (RIF cells).

[2] = test system: RIF tumors; assay: in vivo photosensitizing efficacy, tumor re-growth after laser light; settings: C3H mice bearing RIF tumors, light at 665 nm for 30 minutes
Method: The in vivo efficacy was determined in C3H mice bearing RIF tumors (5 mice/group). The tumors were exposed to light at 665 nm (in vivo absorption) with a laser light ([…]) for 30 minutes. The tumor-regrowth was measured everyday (for details see ‘Methods’ part of the project). […] Further studies to optimize the treatment conditions at variable fluence and fluence-rates and time intervals are currently in progress.

[3] = test system: RIF tumor cells; assay: in vitro photosensitizing efficacy (PDT, MTT assay) in RIF tumor cells; assay type: cell-based; design: in vitro photosensitizing efficacy compared with HPPH: dose or concentration left out as unconfirmed
Method: For evaluating in vitro photosensitizing efficacy of 3-iodobenxyloxyethyl-pyropheophorbide-a 2, RIF tumor cells were grown in alpha-DMEM with 10% fetal calf serum, penicillin and streptomycin. Cells were maintained in 5% CO2, 95% air and 100% humidity. For determining the PDT efficacy, these cells were plated in 96-well plates and a density of 1×10^4 cells well in complete media. After overnight incubation to allow the cells to attach, the HPPH and the related cold-iodo derivative 2 were individually added at variable concentrations. After 3 hr incubation in the dark at 37° C., the cells were washed once with PBS, and irradiated with light. After light treatment, the cells were washed once and placed in complete media and incubated for 48 hrs. Then 10 μl of a 4-mg/ml solution of MTT was added to each well. After incubating for 4 hr at 37° C. the MTT+ media were removed and 100 μl DMSO was added to solubilize the formazin crystals. The 96-well plate was read on a microtiter plate reader at an absorbance of 560 nm. The optimal cell kill was obtained at a concentration of 1.00 µM. The results were plotted as percent survival of the corresponding dark (drug no light) control for each compound tested. (FIG. 4) Each data point represents the mean from 3 separate experiments, and the error bars are the standard deviation. Each experiment used 5 replicate wells.

[4] = test system: RIF tumors; assay: in vivo tumor imaging with small animal PET scanner; settings: C3H mice bearing RIF tumors
Method: In initial experiments, the 1-124 labeled photosensitizer 2 at variable radioactive doses (35, 50 and 100 µCi) was injected in three sets of C3H mice (3 mice/group, bearing RIF tumors at the shoulder) respectively and the images were taken with a small animal PET scanner at 24, 48 and 72 h time intervals (FIG. 6 images A, B, and C). In all radioactive doses, the best images were obtained at 48 h post injection of the drug.

[5] = biodistribution of the I-124 PET agent in selected organs; assay type: in vivo, mice; design: unit not given here; settings: 48 h post injection, per gram of organ
Method: After PET imaging at 48 h post-injection, a group of mice (3 mice/group) were sacrificed and the biodistribution of the I-124 PET agent in selected organs/gram were determined.

Structure (SMILES): CCC1=C(C)c2cc3[nH]c(cc4nc(c5c6[nH]c(cc1n2)c(C)c6C(=O)C5)[C@@H](CCC(=O)OC)[C@@H]4C)c(C)c3C(C)OCc1cccc(I)c1 (stereo partly drawn) [Compound 2]
efficacy in preliminary screening compared with HPPH [1]: as effective as HPPH
time at which tumor re-growth was observed ([2]; dose 0.25 […]mole/kg): 10 days post-injection
time at which tumor re-growth was observed ([2]; dose 0.50 […]mole/kg): 15 days post-injection
in vivo efficacy (PDT) ([2]; dose of 1.0 and 1.5 µmol/kg, 24 hours post injection): quite effective
concentration at which the optimal cell kill was obtained ([3]; 3 hr incubation in the dark, light, MTT after 48 hrs): 1.00 µM
in vitro photosensitizing efficacy compared with HPPH ([3]; FIG. 4): slightly more effective

presence of the compound in organs other than tumor on PET images [4]: especially in liver was evident
biodistribution, Blood ([5]; AVG of 3 mice): 1.12
biodistribution, Gut ([5]; AVG of 3 mice): 2.47
biodistribution, Heart ([5]; AVG of 3 mice): 0.99
biodistribution, Kidney ([5]; AVG of 3 mice): 1.10
biodistribution, Liver ([5]; AVG of 3 mice): 3.31
biodistribution, Lungs ([5]; AVG of 3 mice): 1.09
biodistribution, Muscle ([5]; AVG of 3 mice): 0.35
biodistribution, Spleen ([5]; AVG of 3 mice): 2.11
biodistribution, Stomach ([5]; AVG of 3 mice): 1.02
biodistribution, Tumor ([5]; AVG of 3 mice): 2.22
biodistribution, Blood ([5]; individual mouse (Mouse 1-3)): 1.47 and 1.33 and 0.57
biodistribution, Gut ([5]; individual mouse (Mouse 1-3)): 3.6 and 2.22 and 1.69
biodistribution, Heart ([5]; individual mouse (Mouse 1-3)): 0.79 and 1.21 and 0.98
biodistribution, Kidney ([5]; individual mouse (Mouse 1-3)): 1.09 and 1.21 and 0.99
biodistribution, Liver ([5]; individual mouse (Mouse 1-3)): 3.46 and 3.22 and 3.26
biodistribution, Lungs ([5]; individual mouse (Mouse 1-3)): 0.99 and 1.29 and 1.00
biodistribution, Muscle ([5]; individual mouse (Mouse 1-3)): 0.18 and 0.49 and 0.37
biodistribution, Spleen ([5]; individual mouse (Mouse 1-3)): 2.04 and 2.23 and 2.05
biodistribution, Stomach ([5]; individual mouse (Mouse 1-3)): 1.3 and 0.66 and 1.10
biodistribution, Tumor ([5]; individual mouse (Mouse 1-3)): 2.4 and 2.15 and 2.10
Structure (SMILES): CCC1=C(C)c2cc3[nH]c(cc4nc(c5c6[nH]c(cc1n2)c(C)c6C(=O)C5)[C@@H](CCC(=O)OC)[C@@H]4C)c(C)c3C(C)OCc1cccc([124I])c1 (stereo partly drawn) [I-124 labeled photosensitizer 4]

— patent publication US8198432B2, “Porphyrin-based compounds for tumor imaging and photodynamic therapy” (Health Research, Inc., priority 2005, dated 2012)
